Test results published in patent US8168596B2, “Use of cycloartane compounds for treating arthritis” (NuLiv Holding Inc., priority 2008, dated 2012).

Assays:
Type in all cases: cell-based, human
[1] = system: MMP1 mRNA; assay: RT-PCR of MMP1 mRNA expression in SW1353 cells; details: for MMP1 mRNA expression after AS4 treatment followed by PMA: then 100 ng/mL PMA 24 h; for MMP1 mRNA expression after only AS4 treatment: 24 h, no PMA
Protocol: (§1) First of all, the interaction between TIMP1 mRNA expression and MMP1 mRNA expression in human SW1353 cell line after only AS4 treatment was studied. […] The SW1353 cells were then collected for RT-PCR analysis.
(§2) In a second testing, the effect of AS4 treatment followed by PMA treatment was also studied. The SW1353 cells were first treated with astragaloside IV (AS4) at a concentration of 0.01 μM, 0.1 μM, or 1 μM, followed by incubation for 24 hours. Then PMA was added into each well, followed by incubation for 24 hours. These SW1353 cells were also collected for RT-PCR analysis in the end of the second testing.
(§3) Total RNAs were isolated from the cultured human cells using NucleoSpin RNAII Kit (Macherey-Nagel Inc., PA, USA). Five μg of RNA was reverse transcribed in a total 20 μl transcription mixture. The reaction tube containing primers (oligo(dT)), RNA, 10 mM dNTP Mix, and DEPC-treated water was first incubated at 65° C. for 5 minutes. Eight μl master reaction mixture containing 4 μl 5× cDNA synthesis Buffer, 1 μl 0.1 M DTT, 1 μl RNase OUT™ (40U/μl), 1 μl DEPC-Treated water, and 1 μl SuperScript™II was then added into the reaction tube. The reaction tube was then incubated at 50° C. for 60 minutes, followed by incubation at 85° C. for 5 minutes. Finally, 1 μl RNase H was added at 37° C. and the reaction tube was incubated for 20 minutes. The resulting cDNA was further amplified by PCR. The relevant primers for the following PCR reaction were listed below.
(i) The MMP1 forward primer is 5′-ACTCTGGAGTAATGTCACACCT-3′ (SEQ ID NO: 1), and the MMP1 reverse primer is 5′-GTTGGTCCACCTTTCATCTTCA-3′ (SEQ ID NO: 2);
(§4) In addition, the PCR reaction of MMP1 cDNA was preformed as follows: 95° C. for 5 min, followed by 35 cycles of 94° C. for 30 sec, 60° C. for 30 sec, and 72° C. for 30 sec, and then 72° C. for 10 min followed by maintaining at 4° C. Similarly, the PCR reaction of TIMP1 cDNA was performed as follows: 94° C. for 5 min, followed by 35 cycles of 94° C. for 30 sec, 60° C. for 30 sec, and 72° C. for 30 sec, and then 72° C. for 10 min followed by maintaining at 4° C. The PCR reaction of GAPDH cDNA was performed as follows: 94° C. for 5 min, followed by 18 cycles of 94° C. for 30 sec, 54° C. for 30 sec, and 72° C. for 30 sec, and then 72° C. for 30 sec followed by maintaining at 4° C. These PCR products were analyzed by electrophoresis on a 1.5% gel.

[2] = system: TIMP1 mRNA; assay: RT-PCR of TIMP1 mRNA expression in SW1353 cells; details: for TIMP1 mRNA expression after AS4 treatment followed by PMA: then 100 ng/mL PMA 24 h; for TIMP mRNA expression after only AS4 treatment: 24 h, no PMA
Protocol: as §1, §2, §3
(ii) the TIMP1 forward primer is 5′-AATTCCGACCTCGTCATCAG-3′ (SEQ ID NO: 3) and the TIMP1 reverse primer is 5′-TGCAGTTTTCCAGCAATGAG-3′ (SEQ ID NO: 4); and
as §4

[3] = system: ERK1 (P44) and ERK2 (P42); assay: Western blotting of ERK1/ERK2 in PMA-treated SW1353 cells; details: PMA 100 ng/mL 2 h, then 1 μM AS4 24 h; value without AS4 2.7
[4] = system: MMP-9; assay: Zymography of MMP-9 from pre-treated SW1353 cells; details: PMA-pre-treated SW1353; 0.1 μM, 24 h
Protocol: At the beginning of the experiment, the cells were pre-treated with 100 ng/mL PMA or 10 ng/mL IL-1β for 24 hours. The cells were then treated with 0.1 μM Dexamethasone, various astragaloside compounds (0.1 μM) or extracts of Astragalus membranaceous (1 μg/mL) at indicated dosages for another 24 hours. For control sample, 0.1% DMSO was used as a negative control for these experiments. The conditioned culture mediums were then centrifuged, 2-fold concentrated and collected for assay of collagens or MMPs secreted into the culture medium.
The proteolytic activities of MMPs from SW1353 cells were measured essentially as described previously (Circ Res, 1999; 85:906-911). The cells were lysed in lysis buffer (1% Triton X-100, 50 mM Tris-Cl, pH 7.4, 180 mM NaCl, 1 mM EDTA). The samples were measured for their protein concentration using the bicinchoninic acid (BCA) protein assay kit as described. Samples of concentrated conditioned medium and cell lysates were mixed with non-reducing electrophoresis loading buffer and subjected to electrophoresis under non-reducing conditions. The electrophoresis was carried out on a 10% SDS-PAGE co-polymerized with 2 mg/mL gelatin or casein (Sigma, St. Louis, Mo. USA). For zymographic analysis of pro-MMP-2 and activated MMP-2, the total 20 μg of culture medium were used for electrophoresis. Following electrophoresis, renaturation of the proteins was achieved by incubating the gels twice in 25 g/L Triton X-100 at room temperature for 10 min. Subsequently the gels were incubated in 50 mM Tris-HCl, pH 7.5 containing 0.2 M NaCl, 0.02% Brij35 and 10 mM CaCl2 at 37° C. for 18 hours. After the gels were stained with Coomassie Brilliant Blue R-250 and destained, zones of proteolytic activities became visible as transparent bands in the stained gel. In order to obtain higher sensitivity, the gels were further destained in a solution of 1% Triton X-100 (1 to 2 hours). This procedure increased the signal-to-noise ratio, allowing the visualization of faint gelatinase bands at 92 kDa, 125 kDa and greater than 200 kDa. Zymograms were read using a Molecular Dynamics (Sunnyvale, Calif., USA) computing laser densitometer with Image Quant software.

CC(C)(O)[C@@H]1CC[C@](C)([C@H]2[C@@H](O)C[C@@]3(C)[C@@H]4C[C@H](O[C@@H]5O[C@H](CO)[C@@H](O)[C@H](O)[C@H]5O)[C@H]5C(C)(C)[C@@H](O[C@@H]6OC[C@@H](O)[C@H](O)[C@H]6O)CC[C@@]56C[C@@]46CC[C@]23C)O1 [AS4, Astragaloside IV]
MMP1 mRNA expression after AS4 treatment followed by PMA ([1]; AS4 0.01 μM 24 h): 0.98
MMP1 mRNA expression after only AS4 treatment ([1]; AS4 0.01 μM): 0.97
MMP1 mRNA expression after AS4 treatment followed by PMA ([1]; AS4 0.1 μM 24 h): 0.84
MMP1 mRNA expression after only AS4 treatment ([1]; AS4 0.1 μM): 1.07
MMP1 mRNA expression after AS4 treatment followed by PMA ([1]; AS4 1 μM 24 h): 0.53
MMP1 mRNA expression after only AS4 treatment ([1]; AS4 1 μM): 0.93
TIMP1 mRNA expression after AS4 treatment followed by PMA ([2]; AS4 0.01 μM 24 h): 1.36
TIMP mRNA expression after only AS4 treatment ([2]; AS4 0.01 μM): 0.87
TIMP1 mRNA expression after AS4 treatment followed by PMA ([2]; AS4 0.1 μM 24 h): 1.34
TIMP mRNA expression after only AS4 treatment ([2]; AS4 0.1 μM): 0.90
TIMP1 mRNA expression after AS4 treatment followed by PMA ([2]; AS4 1 μM 24 h): 1.31
TIMP mRNA expression after only AS4 treatment ([2]; AS4 1 μM): 0.84
value of expression of ERK1 (P44) and ERK2 (P42) [3]: 1.7
MMP-9, Zymography, relative to Ctrl 1.00 [4]: 1.04
